What all share (test): ≥ marks a high value that may be exact or a test limit, other limits are often not marked, values filed in µg/mL are converted to µM
Experiment [1] relates to Staphylococcus aureus NCTC 8325.
In experiment [2] the test system is Escherichia coli ATCC 25922.
The test system of experiment [3] is Candida albicans ATCC 90028.
Experiment [4] relates to Escherichia coli ATCC 8739.
For experiment [5], the system named is Staphylococcus aureus ATCC 43300.
The test system of experiment [6] is Staphylococcus aureus ATCC 6538.
The test system of experiment [7] is Bacillus subtilis ATCC 6633.
Experiment [8] has as its system Staphylococcus aureus ATCC 25923.

The structures appear in SMILES notation. ≈ marks a conversion by molar mass, not a printed value.

Broadly, the MIC is the smallest concentration in the dilution series that meets the test's criterion for growth inhibition. `CC[C@H](C)[C@H](NC(=O)[C@H](C)NC(=O)[C@H](CC(=O)O)NC(=O)[C@H](CC(C)C)NC(=O)[C@H](CC(C)C)NC(=O)CN)C(=O)N[C@@H](CCCCN)C(=O)N[C@@H](CC(=O)O)C(=O)N[C@H](C(=O)N[C@@H](C)C(=O)N[C@@H](CCC(N)=O)C(=O)N[C@@H](CC(N)=O)C(=O)N[C@@H](CC(C)C)C(=O)N[C@@H](Cc1ccccc1)C(=O)N[C@@H](C)C(=O)N[C@@H](CC(N)=O)C(=O)N[C@H](C(=O)N[C@@H](CC(C)C)C(=O)N[C@@H](CC(=O)O)C(=O)N[C@@H](CCCCN)C(=O)N[C@H](C(=O)N[C@@H](CCCCN)C(=O)N[C@H]1CSSC[C@@H](C(=O)O)NC(=O)[C@H](CCCCN)NC(=O)[C@H]([C@@H](C)O)NC(=O)[C@H](Cc2ccccc2)NC(=O)[C@H](CCCCN)NC1=O)[C@@H](C)CC)C(C)C)[C@@H](C)O` [GLLDAIKDTAQNLFANVLDKIKCKFTKC]: the MIC in experiment [1] was ≥ 50 µM; in experiment [2], 50 µM (≈ 155 µg/mL); in experiment [3] it was ≥ 50 µM.
Consider `CC[C@H](C)[C@@H]1NC(=O)[C@H](CCCCN)NC(=O)[C@@H](NC(=O)[C@H](CCCCN)NC(=O)[C@H](CC(C)C)NC(=O)[C@H](CCCCN)NC(=O)[C@H](CC(=O)O)NC(=O)[C@H](CC(C)C)NC(=O)[C@H](CC(C)C)NC(=O)[C@@H](NC(=O)[C@@H](NC(=O)[C@H](C)NC(=O)[C@@H](NC(=O)[C@H](CC(N)=O)NC(=O)[C@H](CCCCN)NC(=O)[C@H](C)NC(=O)[C@@H](NC(=O)[C@H](CC(N)=O)NC(=O)[C@H](CCCCN)NC(=O)[C@H](C)NC(=O)[C@@H](NC(=O)[C@H](CC(=O)O)NC(=O)[C@H](CCSC)NC(=O)[C@H](Cc2ccccc2)NC(=O)CN)[C@@H](C)O)C(C)C)C(C)C)C(C)C)[C@@H](C)O)CSSC[C@@H](C(=O)O)NC(=O)CNC(=O)CNC(=O)[C@H]([C@@H](C)O)NC1=O` [GFMDTAKNVAKNVAVTLLDKLKCKITGGC], for which the MIC is ≥ 100 µM in experiment [4]; 100 µM (≈ 304 µg/mL) in experiment [5]; 25 µM (≈ 75.9 µg/mL) in experiment [6]; 12.5 µM (≈ 38 µg/mL) in experiment [7]; ≥ 100 µM in experiment [3].
For the compound `CC[C@H](C)[C@H](NC(=O)CNC(=O)[C@@H](NC(=O)[C@H](CCCN=C(N)N)NC(=O)[C@@H](NC(=O)[C@H](CC(C)C)NC(=O)[C@H](CC(=O)O)NC(=O)[C@H](CCSC)NC(=O)CNC(=O)[C@H](C)NC(=O)[C@H](CCC(=O)O)NC(=O)[C@H](CCCCN)NC(=O)CNC(=O)[C@@H](NC(=O)[C@@H](NC(=O)[C@H](CCCCN)NC(=O)[C@@H](NC(=O)[C@@H](NC(=O)[C@H](CC(N)=O)NC(=O)[C@H](Cc1ccccc1)NC(=O)[C@@H](NC(=O)CNC(=O)[C@@H](NC(=O)[C@H](CCCCN)NC(=O)[C@H](C)NC(=O)[C@H](CCCCN)NC(=O)[C@H](CCCCN)NC(=O)[C@H](CCCCN)NC(=O)[C@H](CC(N)=O)NC(=O)[C@@H](NC(=O)[C@H](CCCCN)NC(=O)[C@@H]1CCCN1C(=O)[C@H](Cc1ccccc1)NC(=O)[C@H](CC(C)C)NC(=O)CN)[C@@H](C)CC)[C@@H](C)O)C(C)C)[C@@H](C)CC)[C@@H](C)CC)[C@@H](C)O)C(C)C)[C@@H](C)CC)[C@@H](C)O)C(=O)N[C@@H](CC(=O)O)C(=O)N[C@H](C(=O)N[C@H](C(=O)NCC(=O)N[C@H]1CSSC[C@@H](C(=O)O)NC(=O)[C@H](CCC(=O)O)NC(=O)CNC(=O)[C@H](CCCCN)NC(=O)[C@H]([C@@H](C)CC)NC(=O)[C@H](CCCCN)NC1=O)[C@@H](C)CC)[C@@H](C)O` [GLFPKINKKKAKTGVFNIIKTVGKEAGMDLIRTGIDTIGCKIKGEC], the minimum inhibitory concentration (MIC) worked out at 12 µM (≈ 59.2 µg/mL) in experiment [1] and 1 µM (≈ 4.93 µg/mL) in experiment [2].
Turning to `CC[C@H](C)[C@H](NC(=O)[C@H](CCCCN)NC(=O)[C@H](C)NC(=O)[C@@H](NC(=O)[C@@H](NC(=O)[C@H](CCCN=C(N)N)NC(=O)[C@H](C)NC(=O)[C@H](CC(C)C)NC(=O)[C@@H](NC(=O)[C@H](CCCCN)NC(=O)[C@H](C)NC(=O)[C@H](C)NC(=O)[C@H](Cc1ccccc1)NC(=O)[C@H](CC(C)C)NC(=O)[C@H](CCCCN)NC(=O)[C@H](CCCCN)NC(=O)[C@H](CCSC)NC(=O)[C@@H]1CCCN1)[C@@H](C)CC)C(C)C)C(C)C)C(=O)N[C@@H](Cc1c[nH]c2ccccc12)C(=O)O` [PMKKLFAAKILARVVAKIW], the figures for the MIC in experiment [4] and in experiment [8] were 14.7 µM (≈ 32 µg/mL) and > 117 µM, respectively.
On to `CC[C@H](C)[C@H](NC(=O)CNC(=O)[C@H](CC(N)=O)NC(=O)[C@H](CC(C)C)NC(=O)[C@H](CC(C)C)NC(=O)[C@H](CCCCN)NC(=O)CNC(=O)[C@@H](NC(=O)[C@@H](NC(=O)[C@@H]1CCCN1C(=O)[C@H](CC(C)C)NC(=O)[C@@H](NC(=O)[C@@H](NC(=O)[C@@H]1CCCN1C(=O)[C@H](CC(C)C)NC(=O)[C@@H](N)Cc1ccccc1)C(C)C)[C@@H](C)CC)C(C)C)[C@@H](C)CC)C(=O)N[C@@H](CC(C)C)C(N)=O` [FLPVILPVIGKLLNGIL], for which the minimum inhibitory concentration (MIC) in experiment [1] is 25 µM (≈ 45.5 µg/mL); in experiment [2], > 50 µM; in experiment [3] it was ≥ 50 µM.
For `CC[C@H](C)[C@H](NC(=O)CNC(=O)[C@H](CCCCN)NC(=O)[C@H](CC(C)C)NC(=O)[C@@H](NC(=O)[C@H](CC(C)C)NC(=O)[C@H](CC(N)=O)NC(=O)[C@H](CCCCN)NC(=O)[C@@H](NC(=O)[C@H](C)NC(=O)[C@H](CCCCN)NC(=O)CNC(=O)CNC(=O)[C@@H](NC(=O)[C@H](CCCCN)NC(=O)[C@H](CO)NC(=O)[C@H](Cc1ccccc1)NC(=O)[C@@H](NC(=O)[C@@H](N)CCCN=C(N)N)[C@@H](C)CC)[C@@H](C)CC)[C@@H](C)CC)[C@@H](C)CC)C(=O)N[C@@H](CCCCN)C(=O)N[C@@H](CC(N)=O)C(=O)N[C@H](C(=O)NCC(=O)N[C@@H](CCCCN)C(=O)N[C@@H](CCC(=O)O)C(=O)N[C@H](C(=O)NCC(=O)N[C@@H](CCSC)C(=O)N[C@@H](CC(=O)O)C(=O)N[C@H](C(=O)N[C@H](C(=O)N[C@@H](CCCN=C(N)N)C(=O)N[C@H](C(=O)NCC(=O)N[C@H](C(=O)N[C@@H](CC(=O)O)C(=O)N[C@H](C(=O)N[C@@H](C)C(=O)NCC(=O)N[C@H]1CSSC[C@@H](C(=O)O)NC(=O)[C@H](CCC(=O)O)NC(=O)CNC(=O)[C@H](CCCCN)NC(=O)[C@H]([C@@H](C)CC)NC(=O)[C@H](CCCCN)NC1=O)C(C)C)[C@@H](C)CC)[C@@H](C)O)[C@@H](C)CC)C(C)C)C(C)C)[C@@H](C)CC` [RIFSKIGGKAIKNLILKGIKNIGKEVGMDVIRTGIDVAGCKIKGEC], the MIC in experiment [4] is 3.1 µM (≈ 15.1 µg/mL); in experiment [5], 12.5 µM (≈ 61 µg/mL); in experiment [6], 3.1 µM (≈ 15.1 µg/mL); in experiment [7], 12.5 µM (≈ 61 µg/mL); in experiment [3], ≥ 50 µM.
Regarding `CSCC[C@H](N)C(=O)N[C@@H](CO)C(=O)N[C@@H](C)C(=O)N[C@@H](CCC(=O)O)C(=O)N[C@H](C(=O)N[C@H](C(=O)N[C@H](C(=O)N[C@@H](CCCCN)C(=O)N[C@@H](CCCCN)C(=O)N[C@H](C(=O)N[C@@H](CC(=O)O)C(=O)NCC(=O)N[C@@H](CC(=O)O)C(=O)N[C@@H](C)C(=O)N[C@@H](CC(C)C)C(=O)N[C@@H](CCC(=O)O)C(=O)N[C@@H](CC(C)C)C(=O)NCC(=O)O)C(C)C)C(C)C)C(C)C)C(C)C` [MSAEVVVKKVDGDALELG], the minimal inhibitory concentration (MIC) in experiment [4] was ≥ 138 µM; in experiment [8], > 138 µM.
`CC[C@H](C)[C@H](NC(=O)[C@H](CC(C)C)NC(=O)[C@H](CCCN=C(N)N)NC(=O)CNC(=O)[C@@H](NC(=O)[C@@H](NC(=O)[C@@H]1CCCN1C(=O)[C@H](CC(C)C)NC(=O)[C@@H](N)Cc1ccccc1)[C@@H](C)CC)C(C)C)C(=O)N[C@@H](CO)C(=O)NCC(=O)N[C@@H](CC(C)C)C(=O)N[C@@H](CC(C)C)C(N)=O` [FLPIVGRLISGLL]: the MIC in experiment [1] stood at 15 µM (≈ 21 µg/mL); in experiment [2] it was 125 µM (≈ 175 µg/mL).
Take `CC[C@H](C)[C@H](NC(=O)[C@H](C)NC(=O)[C@H](CC(C)C)NC(=O)[C@H](CC(=O)O)NC(=O)[C@H](CCCCN)NC(=O)[C@H](Cc1ccccc1)NC(=O)[C@@H](NC(=O)[C@@H](NC(=O)[C@H](CC(C)C)NC(=O)[C@H](Cc1ccccc1)NC(=O)[C@@H](N)CO)[C@@H](C)O)[C@@H](C)O)C(=O)N[C@@H](CCCCN)C(=O)N[C@@H](C)C(=O)N[C@@H](C)C(=O)N[C@@H](CCCCN)C(=O)N[C@@H](CO)C(=O)N[C@@H](C)C(=O)NCC(=O)N[C@@H](CCC(N)=O)C(=O)N[C@@H](CO)C(=O)N[C@H](C(=O)N[C@@H](CC(C)C)C(=O)N[C@@H](CO)C(=O)N[C@H](C(=O)N[C@@H](CC(C)C)C(=O)N[C@@H](CO)C(=O)N[C@H]1CSSC[C@@H](C(=O)O)NC(=O)[C@H]([C@@H](C)O)NC(=O)[C@H](CC(N)=O)NC(=O)[C@H](CO)NC(=O)[C@H](CC(C)C)NC(=O)[C@H](CCCCN)NC1=O)[C@@H](C)O)C(C)C` [SFLTTFKDLAIKAAKSAGQSVLSTLSCKLSNTC]: the figures for the MIC in experiment [4], in experiment [6] and in experiment [7] were 12.5 µM (≈ 42.9 µg/mL), 6.3 µM (≈ 21.6 µg/mL) and 25 µM (≈ 85.8 µg/mL), respectively.
As for `CC[C@H](C)[C@@H]1NC(=O)[C@H](C)NC(=O)[C@@H](NC(=O)[C@@H](NC(=O)[C@@H](NC(=O)[C@H](CCCCN)NC(=O)[C@H](C)NC(=O)[C@H](C)NC(=O)[C@H](CCSC)NC(=O)CNC(=O)[C@H](C)NC(=O)[C@@H](NC(=O)[C@@H](NC(=O)[C@@H]2CCCN2C(=O)[C@H](Cc2ccccc2)NC(=O)[C@@H](N)Cc2ccccc2)[C@@H](C)CC)[C@@H](C)CC)C(C)C)[C@@H](C)CC)CSSC[C@@H](C(=O)O)NC(=O)[C@H](CCCCN)NC(=O)[C@H](CCCCN)NC(=O)[C@H]([C@@H](C)O)NC1=O` [FFPIIAGMAAKVICAITKKC], the MIC in experiment [1] is 3 µM (≈ 6.37 µg/mL); in experiment [2] it was 13 µM (≈ 27.6 µg/mL); in experiment [3], 3 µM (≈ 6.37 µg/mL).

For the origin of these results see DBAASP.
